Data on 6 molecules can be found in patent US12479809B2, “Hydrazone amide derivative and application thereof in preparation of medicaments for preventing and treating alopecia” (SHENZHEN CELL INSPIRE PHARMACEUTICAL DEVELOPMENT CO., LTD., priority 2019, dated 2025).

This test concerns alopecia in mice. In words: Animal experiment: therapeutic effect on alopecia in bilaterally ovariectomized mice after oral administration. The note with it: for Cured / Ineffective / Ameliorated: number of mice of 10 per group; for Cured / Ineffective / Ameliorated / Total effective rate (%) / cure rate / back hair of mice after administration (FIGS. 3, 8 and 9): ovariectomized female mice, oral 10 mg/kg/day, 4 weeks; for Cured: cured = no difference with the normal group; for Ineffective: no difference from the model group; for Ameliorated: significant difference from the model group; for Total effective rate (%) / cure rate: 10 mice per group; for back hair of mice after administration (FIGS. 3, 8 and 9): compared with the normal group (FIG. 1); for promoting hair follicle growth: summary statement. The class given is in vivo. As to the method:
Experiment method: 100 8-week-old female mice were divided into 10 groups with 10 mice in each group. They were randomly divided into a normal group, a model group and administration groups. The mice in the model group and the administration groups were fasted overnight and subjected to bilateral ovariectomy after anesthesia with 0.1 ml of 10% chloral hydrate. After the bilateral ovariectomy, penicillin injection 0.1 ml/per mouse was injected once a day for seven times to prevent infection. After 4 weeks of modeling, the experiment was carried out by oral administration. The medicament was prepared with normal saline, and administered 10 mg/kg/day to each mouse in the administration groups. The normal group and model group were given only normal saline. After 4 weeks of administration, the hair on the back of the mice was observed.
Cured: Alopecia was completely cured, with no difference with the normal group.
Ameliorated: Alopecia was ameliorated, with significant difference from the model group, but small difference from the normal group.
Ineffective: Alopecia was not ameliorated, with no difference from the model group.

Regarding `CC(=O)/C(=N\Nc1ccccc1C(=O)O)C(=O)Nc1cccc(O)n1` [Compound 30], the Cured stood at 4, the Ineffective was 3, the Ameliorated is 3 and the “Total effective rate (%)” value worked out at 70%.
In turn, `CC(=O)/C(=N\Nc1ccccc1C(=O)O)C(=O)Nc1ccccc1` [Compound 24] yielded a Cured of 10, an Ineffective of 0, an Ameliorated of 0 and a cure rate of 100%. In addition, the “back hair of mice after administration (FIGS. 3, 8 and 9)” value is “completely recovered”; the “promoting hair follicle growth” value is “significant advantages”. Besides, for the setting “10 mg/kg/day”, the “Total effective rate (%)” value came to 100%.
Regarding `CCOC(=O)c1sc(NC(=O)/C(=N/Nc2c(C#N)cccc2C(=O)O)C(C)=O)nc1C` [Compound 12], the Cured worked out at 8, the Ineffective worked out at 1, the Ameliorated is listed as 1 and the “Total effective rate (%)” value is reported as 90%.
With `CCOC(=O)c1sc(NC(=O)/C(=N/Nc2ccc(F)cc2C(=O)O)C(C)=O)nc1C` [Compound 10], the Cured is on record as 2, the Ineffective came out at 5, the Ameliorated worked out at 3 and the “Total effective rate (%)” value is on record as 50%.
Consider `CCOC(=O)c1sc(NC(=O)/C(=N/Nc2ccccc2C(=O)OC)C(C)=O)nc1C` [Compound 4], for which the Cured amounted to 8, the Ineffective amounted to 0, the Ameliorated came to 2 and the “promoting hair follicle growth” value is reported as “significant advantages”. Moreover, the “Total effective rate (%)” value (10 mg/kg/day) is given as 100%.
With `CC(=O)/C(=N\Nc1ccccc1C(=O)O)C(=O)N1CCOCC1` [Compound 28], the Cured was determined as 10, the Ineffective is listed as 0, the Ameliorated was determined as 0 and the cure rate amounted to 100%. Besides, the “back hair of mice after administration (FIGS. 3, 8 and 9)” value is given as “completely recovered”; the “promoting hair follicle growth” value was “significant advantages”. For the same molecule, the “Total effective rate (%)” value (10 mg/kg/day) is reported as 100%.
